Data set [1] relates to conscious mice. As to the kind of experiment: Haemodynamic effects in conscious mice with telemetric implants (Example D). It is filed as in vivo. Conditions: result in words, dosages with antifibrotic properties. The protocol: The haemodynamic effects of i.e. example, the compound of formula 3, the compound of formula 4, the compound of formula 6 were analyzed in conscious mice. Telemetric implants (DSI®) were used. Signals were received with RMC1-DSI® receiver plates, compiled and analyzed with PONEMAH® physiology platform software.
The mice received either placebo (tylose), 0.3 mg/kg the compound of formula 27, 1 mg/kg the compound of formula 27, 3 mg/kg the compound of formula 27 (FIG. 1), 1.0 mg/kg the compound of formula 3, 3.0 mg/kg the compound of formula 3, 10.0 mg/kg the compound of formula 3 (FIG. 2A,2B), 1.0 mg/kg the compound of formula 4, 3.0 mg/kg the compound of formula 4, 10.0 mg/kg the compound of formula 4 (FIG. 3A/3B), 0.3 mg/kg the compound of formula 6, 1.0 mg/kg the compound of formula 6, 3.0 mg/kg, 10.0 mg/kg the compound of formula 6 (FIG. 4A/4B). The blood pressure and heart rate was monitored before and after application of placebo or the compounds.

Data set [2] relates to Bleomycin-induced skin fibrosis. As to the kind of experiment: Bleomycin-induced skin fibrosis, preventive dose-regimen (Example A). It is filed as in vivo, mice. Conditions: for dermal thickness, hydroxyproline content of the skin and the number of dermal myofibroblasts: result in words, bleomycin-induced SSc in mice, preventive dose-regimen; for Collagen content / Myofibroblast count / Dermal thickness: Table 2; for Collagen content: bleomycin + vehicle 1.56; for Myofibroblast count: bleomycin + vehicle 3.86; for Dermal thickness: vs vehicle-treated control, bleomycin + vehicle 1.71. As for the experimental part:
Local skin fibrosis was induced in 6-week-old, pathogen-free, female DBA/2 mice (Charles River, Sulzfeld, Germany) by repeated (every other day) subcutaneous injections of bleomycin (0.5 mg/ml in saline) in a defined area of the upper back. Control mice were injected in the same manner with saline only and served as reference. For all groups the injection volume was 100 μl. Concomitant to bleomycin treatment, the mice were treated orally with test drug or vehicle. Mice were treated a) with vehicle b) with 1 mg/kg compound of formula 27, and c) with 3 mg/kg compound of formula 27, twice a day via gavage for 21 days. After this 3 weeks treatment period, the animals were sacrificed and skin samples were obtained for analysis.
The injected skin areas were fixed in 4% formalin and embedded in paraffin. Histological sections were stained with hematoxylin and eosin for the determination of dermal thickness. The dermal thickness was determined by measuring the largest distance between the epidermal-dermal junction and the dermal-subcutaneous fat junction. The measurements were performed by an examiner blinded to the treatment of the mice.
To analyze the collagen content in skin samples, hydroxyproline assay was performed. After digestion of punch biopsies (Ø 3 mm) in 6M HCl for three hours at 120° C., chloramine T (0.06 M) was added and samples were mixed and incubated for 20 min at room temperature. 3.15 M perchloric acid and 20% p-dimethylaminobenzaldehyde were added and samples were incubated for additional 20 min at 60° C. The absorbance was determined at 557 nm.
The expression of α-smooth muscle actin (αSMA) was analyzed in paraffin embedded sections. After deparaffinization, samples were incubated with 3% bovine serum albumin followed by incubation with 3% H2O2. αSMA positive cells in mouse sections were detected by incubation with monoclonal anti-αSMA antibodies (clone 1A4, Sigma-Aldrich, Steinheim, Germany). Irrelevant isotype antibodies in the same concentration were used for control (Santa Cruz Biotechnology, Santa Cruz, Calif., USA). Antibodies labeled with horseradish peroxidase (Dako, Hamburg, Germany) were used as secondary antibodies. The expression of the NICD and αSMA was visualized with DAB peroxidase substrate solution (Sigma-Aldrich). The number of myofibroblasts was counted from 4 different sections of lesional skin for each mouse by an examiner blinded to the treatment of the mice.

Data set [3] has as its system established Bleomycin-induced skin fibrosis. As to the kind of experiment: Established bleomycin-induced skin fibrosis, therapeutic dose-regimen (Example B). Conditions: result in words; bleomycin-induced SSc in mice, therapeutic dose-regimen after established fibrosis. It is filed as in vivo. As for the experimental part:
Local skin fibrosis was induced in 6-week-old, pathogen-free, female DBA/2 mice (Charles River, Sulzfeld, Germany) by repeated (every other day) subcutaneous injections of bleomycin (0.5 mg/ml in saline) in a defined area of the upper back. Control mice were injected in the same manner with saline only. For all groups the injection volume was 100 μl. The study comprises 4 arms with • a) mice receiving saline injection for 6 weeks (serving as reference) • b) mice receiving Bleomycin injection for 6 weeks • c) mice receiving Bleomycin injection for 6 weeks and additional treatment with the compound of formula 27 (3 mg/kg) twice a day via gavage for the last 3 weeks • d) mice receiving the first 3 weeks bleomycin injections and the second 3 weeks saline injection.
After 6 weeks the animals were sacrificed and skin samples were obtained for analysis.
(§1) Histological analysis, hydroxyproline assay and immunohistochemistry for α-smooth muscle actin were performed as described in the Example 1 section.

Data set [4] concerns Tsk-1 mice. Briefly: Tight skin (Tsk-1) mouse model of systemic sclerosis (Example C). It is filed as in vivo. Conditions: result in words; TSK mice with established fibrosis before start of treatment. The protocol:
In addition to the mouse model of bleomycin-induced dermal fibrosis, the tight-skin (Tsk-1) mouse model of systemic sclerosis was used to evaluate the anti-fibrotic potential of test drugs. Due to a dominant mutation in fibrillin-1, the phenotype of Tsk-1 is characterized by an increased hypodermal thickness. Genotyping of Tsk-1 mice was performed by PCR with the following primers: mutated fibrillin-1/Tsk-1 forward primer: 5′-[…]-3′, reverse primer: 5′-[…]-3′. Tsk-1 mice were treated daily with test drug or vehicle, respectively, by oral gavage. In addition, a group of corresponding wild type(pa/pa) mice was treated with vehicle. The treatment was started at an age of five weeks. After five weeks of treatment, mice were sacrificed by cervical dislocation and skin samples were obtained for analysis.
as §1

In data set [5] the test system is human dermal fibroblasts. As to the kind of experiment: TGFbeta-induced collagen gene expression and hydroxyproline deposition in human dermal fibroblasts (Example E). It is filed as cell-based. Conditions: result in words; human dermal fibroblasts in vitro. The protocol: The effects of the compound of formula 27 and vardenafil as stand alone and in combination were analyzed in vitro in human dermal fibroblasts in vitro.

The subject of data set [6] is Bleomycin-induced skin fibrosis. As to the kind of experiment: Bleomycin-induced skin fibrosis, preventive dose-regimen (Example A). It is filed as in vivo, mice. Conditions: Table 2, 0.3 mg/kg.

Entries after “also recorded” stand apart in the source; their conditions may differ.

For the compound `COC(=O)N(C)c1c(N)nc(-c2nn(Cc3ccccc3F)c3ncc(F)cc23)nc1N`, in data set [1], the “haemodynamic profile (blood pressure and heart rate)” value (“haemodynamic profile” below) is listed as “did not or only moderately, change”.

For `Nc1nc(-c2nn(Cc3ccccc3F)c3ncccc23)ncc1C1CC1` [compound of formula 27, 3-(4-Amino-5-cyclopropylpyrimidin-2-yl)-1-(2-fluorobenzyl)-1H-pyrazolo[3,4-b]pyridine], the “dermal thickness, hydroxyproline content of the skin and the number of dermal myofibroblasts” value (shortened to “dermal thickness, hydroxyproline content”) in data set [2], in data set [3] and in data set [4] was “significantly reduced” throughout. Further, in data set [1], the “haemodynamic profile” value is recorded as “did not or only moderately, change”. The “TGFbeta-induced Collagen gene expression” value in data set [5] was “significantly blocked”. In addition, in data set [5], the “TGFbeta-induced Hydroxyproline (HP) deposition” value was “significantly blocked”.

Consider `COC(=O)Nc1c(N)nc(-c2nn(Cc3ccccc3F)c3ncc(F)cc23)nc1N` [compound of formula 6, Methyl-{4,6-diamino-2-[5-fluoro-1-(2-fluorobenzyl)-1H-pyrazolo[3,4-b]pyridine-3-yl]pyrimidine-5-yl}carbamate], for which the Collagen content is reported as 1.28 x-fold change in data set [2] (1 mg/kg), 1.20 x-fold change in data set [2] (3 mg/kg) and 1.41 x-fold change in data set [6] (bleomycin + vehicle 1.56). For the same compound, the Myofibroblast count in data set [2] (1 mg/kg) stood at 2.05 x-fold change; in data set [2] (3 mg/kg), 1.49 x-fold change; in data set [6] (bleomycin + vehicle 3.86), 3.13 x-fold change. Also, the Dermal thickness in data set [2] (1 mg/kg) stood at 1.24 x-fold change; in data set [2] (3 mg/kg), 1.19 x-fold change; in data set [6] (vs vehicle-treated control, bleomycin + vehicle 1.71), 1.41 x-fold change. Also, the “dermal thickness, hydroxyproline content” value in data set [2] was “significantly reduced; also recorded: dose dependent and significant effects”.

For the compound `COC(=O)N(C)c1c(N)nc(-c2nn(Cc3ccccc3F)c3ncccc23)nc1N` [compound of formula 3, Methyl-4,6-diamino-2-[1-(2-fluorobenzyl)-1H-pyrazolo[3,4-b]pyridine-3-yl]-5-pyrimidinyl-(methyl)carbamate], in data set [2] (1 mg/kg), the Collagen content stood at 1.38 x-fold change, the Myofibroblast count is given as 2.55 x-fold change and the Dermal thickness stood at 1.38 x-fold change. Further, the “dermal thickness, hydroxyproline content” value in data set [2] was “significantly reduced; also recorded: dose dependent and significant effects”. For the same compound, the “haemodynamic profile” value in data set [1] was “did not or only moderately, change”.

For the compound `COC(=O)Nc1c(N)nc(-c2nn(Cc3ccccc3F)c3ncccc23)nc1N` [compound of formula 4, Methyl-4,6-diamino-2-[1-(2-fluorobenzyl)-1H-pyrazolo[3,4-b]pyridine-3-yl]-5-pyrimidinyl-carbamate], in data set [1], the “haemodynamic profile” value is “did not or only moderately, change”.
